# From patent US4465681A, “Bis-(aminoalkoxy)-phenyl, pyridyl ketones, and use as immunological agents” (Yoshitomi Pharmaceutical Industries Ltd., priority 1980, dated 1984)
# “Also recorded” adds a separate entry of the source. Where a name gives a salt, the structure may show the parent alone.
# How the values were obtained:
# [1] = tested on: plaque-forming cells (PFC) in the spleen; experiment: Activity for suppressing immune response in BALB/C strain mice: plaque-forming cells (PFC); format: in vivo, female BALB/C strain mice; details: 30 mg/kg orally, same and next day of sensitization; 4 days after sensitization; control 17.4 ± 2.3 (for A), 9.5 ± 1.0 (for B); **p < 0.01 vs control
# Protocol: (§1) Female BALB/C strain mice (6 weeks old) were used by dividing into groups of 6 animals. The sensitization was made by intraperitoneal injection of antigen: 5×10^8 sheep red blood cells. Each mouse was orally administered with the test compound on the same day and the next day of the sensitization. Four days after the sensitization, the number of plaque-forming cells (PFC) in the spleen, and the number of rosette-forming cells (RFC) in the spleen and/or thymus were measured in a usual manner.
# peritoneal macrophages = experiment: Activation of peritoneal macrophage in mice (phagocytosis of yeast); format: cell-based, male dd mice; details: 0 μM control 33.9 ± 0.8
# Protocol: Peritoneal macrophages were obtained from male dd mice (8 weeks old). After washing macrophages, the cells were adjusted to 5×10^6 macrophages/ml in Hanks' solution. A mixture containing 100 μl of the macrophage suspension, 50 μl of mice serum and 10 μl of the test compound was preincubated at 37° C. for 10 minutes, and then 50 μl of yeast cells (2.5×10^8 /ml) was added thereto. After further incubation of the mixture at 37° C. for 20 minutes, the number of macrophages phagocytosing yeast was counted in a usual manner.
# [2] = tested on: rosette-forming cells (RFC) in the spleen and/or thymus; experiment: Activity for suppressing immune response in BALB/C strain mice: rosette-forming cells (RFC); format: in vivo, female BALB/C strain mice; details: 30 mg/kg orally, 4 days after sensitization; for No. of RFC, Spleen: control 135 ± 27 (for A), 172 ± 32 (for B), B **p < 0.01 vs control
# Protocol: as §1
# Acute toxicity = format: in vivo; details: mouse, in vivo
# Protocol: (§2) Acute toxicity was determined using male dd mice (8 weeks old).
# male dd mice = experiment: Acute toxicity; format: in vivo; details: p.o.; printed beside LD50 >1000 mg/kg
# Protocol: as §2
# [3] = tested on: rosette-forming cells (RFC) in the spleen and/or thymus; experiment: Activity for potentiating immune response in C57BL/6 strain mice: rosette-forming cells (RFC); format: in vivo, female C57BL/6 strain mice; details: 30 mg/kg orally, 6 days after sensitization; for No. of RFC, Spleen: control 75 ± 17 (for A), 55 ± 11 (for B), **p < 0.01 vs control
# Protocol: Female C57BL/6 strain mice (6 weeks old) were used dividing into groups of 6 animals. The sensitization was made by intraperitoneal injection of antigen: 5×10^8 sheep red blood cells. Each mouse was orally administered with the test compound on the same day and next day of the sensitization. Six days after the sensitization, the number of rosette-forming cells (RFC) in the spleen and/or thymus was measured in a usual manner.
# adjuvant arthritis = experiment: Anti-adjuvant arthritis activity in rats; format: in vivo, male Lewis rats
# Protocol: (A model disease of rheumatoid arthritis) Male Lewis rats (8-9 weeks old) were used. Adjuvant arthritis was caused by the method described by B. B. Newbould in "Brit. J. Pharmacol.", 21, 127 (1963). Twenty-one days after the subcutaneous injection of a suspension of killed tubercle bacillus in Freund's adjuvant into the tail of the rats, the severity of arthritis was assayed as the hindleg volume. Each group of the rat was orally administered with the test compound once a day.
Compound,"No. of PFC, Spleen [1]",Phagocytosis (peritoneal macrophages; 10 μM),"Phagocytosis (peritoneal macrophages; 30 μM, **p < 0.01 vs control)","Phagocytosis (peritoneal macrophages; 100 μM, **p < 0.01 vs control)","No. of RFC, Thymus ([2]; control 9.5 ± 1.0, **p < 0.01 vs control)","No. of RFC, Spleen [2]",LD50 (Acute toxicity; ip),LD50 (Acute toxicity; po),dead/total animals (male dd mice),"No. of RFC, Thymus ([3]; control 2.8 ± 0.5, **p < 0.01 vs control)","No. of RFC, Spleen [3]","Volume of Hindleg (adjuvant arthritis; 50 mg/kg orally once a day, twenty-one days after adjuvant injection, control 2.40 ± 0.20, **p < 0.01 vs control)","anti-adjuvant arthritis activity (in words) (adjuvant arthritis; dose of 50 mg/kg, dihydrochloride hemihydrate, 50 mg/kg)"
"CN(C)CCOc1ccc(C(=O)c2cccnc2OCCN(C)C)cc1 [Test compound A, 2,4'-bis(2-dimethylaminoethoxy)-3-benzoylpyridine dihydrochloride hemihydrate]",9.0 ± 1.4 × 10^4,35.5 ± 1.9%,46.5 ± 2.7%,54.3 ± 3.1%,1.2 ± 0.4 × 10^4,126 ± 24 × 10^4,300 mg/kg,> 1000 mg/kg,1/6,7.4 ± 1.1 × 10^4,214 ± 46 × 10^4,1.17 ± 0.29 mL,significant inhibition of adjuvant arthritis; also recorded: has anti-arthritis activity
"CC(CN(C)C)Oc1ccc(C(=O)c2cccnc2OC(C)CN(C)C)cc1 (stereo not shown) [Test compound B, 2,4'-bis(1-methyl-2-dimethylaminoethoxy)-3-benzoylpyridine dioxalate]",4.6 ± 0.8 × 10^4,40.8 ± 2.7%,49.6 ± 2.1%,63.4 ± 6.7%,–,88 ± 10 × 10^4,250 mg/kg,> 1000 mg/kg,0/5,–,149 ± 22 × 10^4,–,–
